Test results published in patent US5973005A, “Aqueous creatine solution and process of producing a stable, bioavailable aqueous creatine solution” (priority 1998, dated 1999).
Entries after “also recorded” stand apart in the source; their conditions may differ.

Assays:
[1] = endogenous level; cited from earlier work
[2] = physchem; conditions: weakly alkaline water
Description: A 1 ml sample was analyzed by HPLC using a Shimadzu LC-10AD Liquid Chromatograph. The operating parameters are as follows:
The operating parameters are as follows:

[3] = acidic conditions / stomach; cited from earlier work
[4] = system: adenosine triphosphate resynthesis; conditions: in muscle, creatine phosphate versus glycogen; cited from earlier work

| SMILES | normal creatine concentration in the bloodstream [1] | creatine remaining, by HPLC (slightly alkaline water) | creatinine produced, by HPLC (weakly alkaline water) | degraded [2] | conversion to creatinine under acidic conditions [3] | rate of ATP resynthesis compared to glycogen [4] |
| --- | --- | --- | --- | --- | --- | --- |
| CN(CC(=O)O)C(=N)N [creatine, N-(aminoiminomethyl)-N-methylglycine] | about 50 μmol per liter of blood | about 85% | about 15% | ~15% | formation of creatinine from free creatine is complete; also recorded: rapidly converts to creatinine by the acidic conditions in the stomach |  |
| CN(CC(=O)O)C(=N)NP(=O)(O)O [Creatine phosphate] |  |  |  |  |  | nearly twice the rate |
